Results taken from patent publication US11447525B2 (NIIGATA UNIVERSITY, priority 2018, dated 2022).
Non-standard residues stand in square brackets, D forms with d. Residues, ends and D or L forms follow the SMILES beside them. *: point of attachment. 5FAM = O=C1OC2(c3ccc(O)cc3Oc3cc(O)ccc32)c2ccc(C(=O)*)cc21; NMeR = CN[C@@H](CCCNC(=N)N)C(=O)O

How the values were obtained:
[1] = tested on: pancreatic cancer cells (BxPC3, PK-8, MIA-Paca2); assay: Accumulation of FAM-labeled peptides in cells, inverted fluorescence microscope (Test Example 2); assay type: cell-based, human; settings: 2 μM, 37° C., 2 hours
Description: Tests were conducted to confirm the accumulation of each peptide in each of the cells shown below in Table 8. Further, among the peptides shown below in Table 9, the FAM-PCPP11 used in Test Example 1, the LL peptide in which the N-terminus had been FAM-labeled (FAM-LL), and the Ld peptide in which the N-terminus had been FAM-labeled (FAM-Ld) were used.
Each of FAM-PCPP11, FAM-LL and FAM-Ld was added to each of the cells shown in Table 8 in an amount sufficient to achieve a final concentration in the medium of 2 μM, and following cultivation of the cells at 37° C. for 2 hours, the sample was washed 3 times with a medium containing no peptide to remove any peptide within the medium. Subsequently, the incorporation of each of the peptides into each of the cells was evaluated visually using an inverted fluorescence microscope. Prior to the microscopic examination, the culture supernatant to which the peptide had been added was removed, and following washing three times with 1×PBS (−), a trypsin treatment was conducted to remove the adherent cells, and the resultant was immediately transferred into a new 96-well plate and once again suspended in fresh culture solution before the microscopic examination was performed. In FIG. 8A, “L” indicates the cells to which FAM-PCPP11 was added, “LL” indicates the cells to which FAM-LL was added, and “Ld” indicates the cells to which FAM-Ld was added. Further, the fluorescent images in the BxPC3 cells indicate a representative example of pancreatic cancer cells.
Furthermore, FIG. 8B is a graph quantifying the fluorescence detected in each of the above cells in FIG. 8A, with the fluorescence intensity detected in each cell shown relative to a value of 1.0 for the fluorescence detected in the H2110 cells, which is a cell line derived from an adenocarcinoma in a human non-small-cell lung cancer system, to which each of the FAM-PCPP11 and FAM-LL peptides had been added.
Further, each of FAM-PCPP11, FAM-LL and FAM-NmLL was added to each of the cells shown in Table 8 in an amount sufficient to achieve a final concentration in the medium of 2 μM, and following cultivation of the cells at 37° C. for 2 hours, the sample was washed 3 times with a medium containing no peptide to remove any peptide within the medium. Subsequently, the incorporation of each of the peptides into each of the cells was evaluated visually using an inverted fluorescence microscope. […]

[2] = tested on: scirrhous pancreatic cancer model mice (BxPC3, MIA-Paca2, AsPC1 or Capan-2 cells with hMSC); assay: Selective absorption of FAM-NmLL in tissues of scirrhous pancreatic cancer model mice (Test Example 7); assay type: in vivo, NOD/SCID, KPC and KC mouse; settings: 200 μg into the caudal vein, 30 minutes after administration; all of the mouse models
Description: FAM-NmLL was administered to pancreatic cancer model mice having scirrhous carcinoma, and the selective absorption of the FAM-NmLL in various tissues of the mouse was confirmed. A scirrhous pancreatic cancer model mouse having scirrhous carcinoma that forms abundant tumor-stroma interactions was produced in accordance with the method disclosed in the above Reference Document 1. Specifically, a 6-week old NOD/SCID mouse (CLEA Japan Inc., Japan), a Pdx1-Cre/KRAS^G12D (KC) mouse having a mutation in K-Ras, and a Pdx1-Cre/KRAS^G12D; p53^R172H (KPC) mouse having pancreatic cancer-specific mutations in K-Ras and p53 were raised under pathogen-free conditions. […]
FAM-NmLL (200 μg) was injected into the caudal vein of each of the obtained scirrhous pancreatic cancer model mice. Subsequently, the pharmacokinetics of the peptide 30 minutes after administration were analyzed by tissue analysis of the freshly dissected specimen of the peptide-administered mouse. […]

C[C@@H](O)[C@H](NC(=O)[C@@H](NC(=O)[C@@H]1CCCN1C(=O)[C@H](CCCNC(=N)N)NC(=O)[C@H](CCCNC(=N)N)NC(=O)CNC(=O)[C@@H]1CCCN1C(=O)[C@H](CCCCN)NC(=O)[C@H](Cc1c[nH]cn1)NC(=O)[C@H](Cc1c[nH]c2ccccc12)NC(=O)[C@@H](NC(=O)[C@@H](NC(=O)[C@@H]1CCCN1C(=O)[C@H](CCCNC(=N)N)N(C)C(=O)[C@H](CCCNC(=N)N)NC(=O)c1ccc2c(c1)C(=O)OC21c2ccc(O)cc2Oc2cc(O)ccc21)[C@@H](C)O)[C@@H](C)O)[C@@H](C)O)C(=O)N[C@@H](Cc1c[nH]c2ccccc12)C(=O)N[C@@H](Cc1c[nH]cn1)C(=O)N[C@@H](CCCCN)C(=O)N1CCC[C@H]1C(=O)O [FAM-NmLL] (5FAM-R[NMeR]PTTWHKPGRRPTTWHKP-OH; C-terminus assumed)
fluorescence compared with the sample containing FAM-PCPP11 [1]: stronger fluorescence | absorption into the cancer cell nests inside the tumor tissues [2]: strong absorption | absorption into the tumor tissues (main lesions and metastatic lesions) [2]: strong absorption
